What all share (format): cell-based
For experiment [1], the system named is bacteria expressing Classes A, B or D. The experiment can be described thus: Growth test with CLOX (FIG. 31). The conditions noted are these: CLOX at a concentration of about 100 μg/ml. The procedure:
(§1) Non-limiting embodiments of detection tests for enteric and non-fermenting bacteria, with various concentration ranges of one or more antibiotics, and various concentration ranges for one or more inhibitors are shown in FIG. 1-FIG. 24 and FIG. 31. These figures illustrate the concentration of the antibiotic being tested (in μg/ml) along the x-axis (not every concentration is tested in every figure), and the amount of growth of bacteria in the sample in the y-axis. The boxes illustrate the median, interquartile range, non-outlier minimum and maximum; with asterisks representing single outliers. Each figure has a panel for Class A, Class B, and Class D producing bacteria, as well as a panel for non-carbapenemase producing bacteria (NEG). In some embodiments, the detection tests described herein are not performed by imaging a change in cell morphology.
(§2) In some embodiments, the detection tests can comprise a plurality of wells comprising enteric bacteria, CLOX at 0.1 mg/ml, and MEM over a range of concentrations of about 0.0156 μg/ml to about 64 μg/ml (FIG. 31).

The subject of experiment [2] is Bacteria expressing Class C β-lactamases. As to the kind of experiment: Growth test with CLOX (FIG. 31). The procedure:
as §1, §2

In another experiment the test system is C. freundii G1706. As to the kind of experiment: Carbapenem MIC of study isolate. The settings on record: Citrobacter freundii, KPC.
For another experiment, the system named is E. coli G1693. The experiment can be described thus: Carbapenem MIC of study isolate. The conditions noted are these: Escherichia coli, High AmpC, S12like (Table 2), High AmpC (Table 4.2).
The next experiment deals with P. mirabilis G1745. The experiment can be described thus: Carbapenem MIC of study isolate. The conditions noted are these: Proteus mirabilis, CMY, TEM-1-like.
In another experiment the test system is K. pneumoniae G157. As to the kind of experiment: Carbapenem MIC of study isolate. The conditions noted are these: Klebsiella pneumoniae, KPC-8.
The next experiment has as its system K. pneumoniae 0042. The experiment can be described thus: Carbapenem MIC of study isolate. The conditions noted are these: Klebsiella pneumoniae, CTX-M-28, OmpK35, OmpK36.
Another experiment concerns E. cloacae G1693. The experiment can be described thus: Carbapenem MIC of study isolate. The settings on record: Enterobacter cloacae, IMP-8 (Table 4.1).
For the next experiment, the system named is K. pneumoniae G1685. As to the kind of experiment: Carbapenem MIC of study isolate. The settings on record: Klebsiella pneumoniae, CMY-2-like.
A further experiment has as its system S. marcescens G153. As to the kind of experiment: Carbapenem MIC of study isolate. The settings on record: Serratia marcescens, KPC.
The test system of a further experiment is K. oxytoca G1640. The experiment can be described thus: Carbapenem MIC of study isolate. The settings on record: Klebsiella oxytoca, KPC.
Another experiment has as its system E. coli 0058. As to the kind of experiment: Carbapenem MIC of study isolate. The conditions noted are these: Escherichia coli, ESBL.
In another experiment the test system is A. baumannii G1734. The experiment can be described thus: Carbapenem MIC of study isolate. The conditions noted are these: Acinetobacter baumannii, OXA-40.
Another experiment concerns K. ozaenae 0096. The experiment can be described thus: Carbapenem MIC of study isolate. The conditions noted are these: KPC.
A further experiment relates to K. pneumoniae 0079. The experiment can be described thus: Carbapenem MIC of study isolate. The settings on record: Klebsiella pneumoniae, CTX-M-14, OmpK35 (Table 4.2 also DHA-1).
The test system of the next experiment is K. pneumoniae G1758. The experiment can be described thus: Carbapenem MIC of study isolate. The conditions noted are these: Klebsiella pneumoniae, CLSI MHT negative control.
For another experiment, the system named is E. aerogenes G1614. The experiment can be described thus: Carbapenem MIC of study isolate. The conditions noted are these: Klebsiella aerogenes, High AmpC.
The subject of a further experiment is P. aeruginosa G15. The experiment can be described thus: Carbapenem MIC of study isolate. The settings on record: Pseudomonas aeruginosa, KPC-5.
Another experiment has as its system K. pneumoniae 0044. The experiment can be described thus: Carbapenem MIC of study isolate. The conditions noted are these: Klebsiella pneumoniae, CTX-M-15, TEM-1, SHV-1.
The next experiment concerns K. pneumoniae 0113. As to the kind of experiment: Carbapenem MIC of study isolate. The conditions noted are these: Klebsiella pneumoniae, KPC-3.
For the next experiment, the system named is A. baumannii 0052. As to the kind of experiment: Carbapenem MIC of study isolate. The conditions noted are these: Acinetobacter baumannii, OXA-58.
A further experiment relates to P. aeruginosa G15019. The experiment can be described thus: Carbapenem MIC of study isolate. The settings on record: Pseudomonas aeruginosa, VIM-2, read-out: MIC.
Another experiment deals with K. pneumoniae G1675. As to the kind of experiment: Carbapenem MIC of study isolate. The conditions noted are these: Klebsiella pneumoniae, KPC-2, SHV-5-like.
For a further experiment, the system named is E. coli 0137. As to the kind of experiment: Carbapenem MIC of study isolate. The settings on record: Escherichia coli, NDM-6.
In a further experiment the test system is K. pneumoniae G1511. The experiment can be described thus: Carbapenem MIC of study isolate. The conditions noted are these: Klebsiella pneumoniae, KPC-4, read-out: MIC.
For the next experiment, the system named is K. pneumoniae 0047. The experiment can be described thus: Carbapenem MIC of study isolate. The conditions noted are these: Klebsiella pneumoniae, OmpK35.
The next experiment relates to E. cloacae 0032. The experiment can be described thus: Carbapenem MIC of study isolate. The settings on record: Enterobacter cloacae, KPC-3, TEM-1.
For a further experiment, the system named is P. aeruginosa G15557. As to the kind of experiment: Carbapenem MIC of study isolate. The settings on record: Pseudomonas aeruginosa, VIM-like, read-out: MIC.
In the next experiment the test system is P. mirabilis 0155. The experiment can be described thus: Carbapenem MIC of study isolate. The conditions noted are these: Proteus mirabilis, KPC.
The subject of another experiment is P. mirabilis 0156. The experiment can be described thus: Carbapenem MIC of study isolate. The settings on record: Proteus mirabilis, KPC.
The subject of the next experiment is K. pneumoniae 0109. The experiment can be described thus: Carbapenem MIC of study isolate. The conditions noted are these: Klebsiella pneumoniae, CTX-M-15, TEM-1, SHV-1.
The subject of the next experiment is E. cloacae G1735. As to the kind of experiment: Carbapenem MIC of study isolate. The settings on record: Enterobacter cloacae.
Another experiment deals with E. coli G164. The experiment can be described thus: Carbapenem MIC of study isolate. The settings on record: Escherichia coli, High AmpC (Table 2), SHV-12-like (Table 4.2).
For a further experiment, the system named is E. coli 0119. The experiment can be described thus: Carbapenem MIC of study isolate. The settings on record: Escherichia coli, NDM.
The next experiment concerns E. aerogenes G1648. As to the kind of experiment: Carbapenem MIC of study isolate. The settings on record: Klebsiella aerogenes, High AmpC.
A further experiment relates to E. coli 0086. As to the kind of experiment: Carbapenem MIC of study isolate. The settings on record: Escherichia coli, CTX-M-9.
A further experiment concerns K. pneumoniae G1725. The experiment can be described thus: Carbapenem MIC of study isolate. The settings on record: Klebsiella pneumoniae, KPC.
The test system of a further experiment is E. cloacae G1691. As to the kind of experiment: Carbapenem MIC of study isolate. The conditions noted are these: Enterobacter cloacae; IMP-8-producing E. cloacae G1691.
A further experiment relates to K. pneumoniae G158. As to the kind of experiment: Carbapenem MIC of study isolate. The settings on record: Klebsiella pneumoniae, KPC-8.
The test system of another experiment is K. pneumoniae 0043. The experiment can be described thus: Carbapenem MIC of study isolate. The conditions noted are these: Klebsiella pneumoniae, SHV-12, OmpK36.
Another experiment deals with M. morganii G1751. The experiment can be described thus: Carbapenem MIC of study isolate. The settings on record: Morganella morganii, High AmpC.
A further experiment concerns P. mirabilis G15185. The experiment can be described thus: Carbapenem MIC of study isolate.
For another experiment, the system named is K. oxytoca 0147. The experiment can be described thus: Carbapenem MIC of study isolate. The settings on record: KPC.
The subject of the next experiment is E. cloacae G1637. The experiment can be described thus: Carbapenem MIC of study isolate. The settings on record: Enterobacter cloacae, High AmpC.
In experiment [3] the test system is non-carbapenemase producing (NEG) enteric bacteria. The experiment can be described thus: Growth of enteric bacteria in the presence of TEM (FIG. 1). The conditions noted are these: nearly all NEG enteric bacteria. The procedure: as §1
(§3) By way of example, FIG. 1 illustrates a test of various enteric bacteria grown in the presence of several concentrations of TEM.
(§4) In some embodiments, the detection tests can comprise a plurality of wells comprising enteric bacteria and TEM over a range of concentrations of about 12 μg/ml to about 512 μg/ml (FIG. 1).

Experiment [4] has as its system enteric bacteria expressing Class B carbapenemase. The description is as above. As to the method: as §1, §3, §4
For experiment [5], the system named is enteric bacteria expressing Class A carbapenemase. The experiment is described as above. The settings on record: Class A enteric bacterial strains. The procedure: as §1, §3, §4
Experiment [6] relates to enteric bacteria expressing Class D carbapenemase. The experiment is described as above. The procedure:
as §1, §3, §4

Molecules are shown by their SMILES. Where two headings read alike, the source gives them in different places.

Turning to `Cc1onc(-c2ccccc2Cl)c1C(=O)N[C@@H]1C(=O)N2[C@@H]1SC(C)(C)[C@@H]2C(=O)O` [CLOX, cloxacillin], the “sensitivity to CLOX” value in [1] is given as “typically not”. Moreover, in experiment [2], the “concentration at which bacteria are sensitive” value is given as “about 100 μg/ml”.

For `C[C@@H](O)[C@H]1C(=O)N2C(C(=O)O)=C(S[C@@H]3CN[C@H](C(=O)N(C)C)C3)[C@H](C)[C@H]12` [Meropenem], the MIC in the experiment on C. freundii G1706 is 0.25 µg/mL; in the experiment on E. coli G1693 it was over 8 µg/mL; in the experiment on P. mirabilis G1745 it was at most 0.125 µg/mL; in the experiment on K. pneumoniae G157, over 8 µg/mL; in the experiment with K. pneumoniae 0042 it was 4 µg/mL; in the experiment on E. cloacae G1693, 0.5 µg/mL. Also, the MIC in the experiment on K. pneumoniae G1685 is over 8 µg/mL; with S. marcescens G153 it was over 8 µg/mL; in the experiment with K. oxytoca G1640, over 8 µg/mL; in the experiment with E. coli 0058, 0.5 µg/mL; with A. baumannii G1734 it was over 8 µg/mL; in the experiment on K. ozaenae 0096, over 8 µg/mL. Also, the MIC with K. pneumoniae 0079 is over 8 µg/mL; in the experiment with K. pneumoniae G1758, 1 µg/mL; in the experiment with E. aerogenes G1614, over 8 µg/mL; in the experiment with P. aeruginosa G15 it was over 8 µg/mL; with K. pneumoniae 0044, over 8 µg/mL; with K. pneumoniae 0113, over 8 µg/mL. Moreover, the MIC in the experiment on A. baumannii 0052 was 8 µg/mL; with P. aeruginosa G15019, 4 µg/mL; in the experiment on K. pneumoniae G1675 it was over 8 µg/mL; with E. coli 0137, over 8 µg/mL; with K. pneumoniae G1511, 2 µg/mL; in the experiment with K. pneumoniae 0047, over 8 µg/mL. The MIC was 2 µg/mL in the experiment with E. cloacae 0032; 4 µg/mL in the experiment on P. aeruginosa G15557; 8 µg/mL with P. mirabilis 0155; 0.25 µg/mL in the experiment on P. mirabilis 0156; 8 µg/mL in the experiment on K. pneumoniae 0109; over 8 µg/mL in the experiment with E. cloacae G1735. Also, the MIC with E. coli G164 was over 8 µg/mL; in the experiment on E. coli 0119, over 8 µg/mL; in the experiment on E. aerogenes G1648, over 8 µg/mL; in the experiment on E. coli 0086, over 8 µg/mL; in the experiment on K. pneumoniae G1725, over 8 µg/mL; in the experiment on E. cloacae G1691, 0.5 µg/mL. Besides, the MIC with K. pneumoniae G158 was over 8 µg/mL; in the experiment on K. pneumoniae 0043 it was over 8 µg/mL; in the experiment on M. morganii G1751, 4 µg/mL; with P. mirabilis G15185 (IMP-27, listed as MEM) it was over 8 µg/mL; in the experiment on P. mirabilis G15185 (Proteus mirabilis, IMP-27, read-out: MIC), over 8 µg/mL; in the experiment with K. oxytoca 0147 (listed as MEM), over 8 µg/mL. The MIC in the experiment on K. oxytoca 0147 (Klebsiella oxytoca, read-out: MIC) was over 8 µg/mL; in the experiment on E. cloacae G1637, over 8 µg/mL.

Turning to `CO[C@@]1(NC(=O)C(C(=O)O)c2ccsc2)C(=O)N2[C@@H](C(=O)O)C(C)(C)S[C@@H]21` (stereo partly drawn) [TEM, disodium 6beta-(2-carboxy-2-thien-3-ylacetamido)-6alpha-methoxypenicillanate], the “sensitivity to TEM” value in experiment [3] is “sensitive to lowest concentration”. Moreover, in experiment [4] (Class B enteric bacteria, decrease in the average growth line), the “concentration at which bacteria begin to show sensitivity” value came to 48 µg/mL. Further, in experiment [4] (Class B enterics), the “concentration at which growth of most strains is inhibited” value was found to be 384 µg/mL. Moreover, the “concentration at which nearly all strains tested are inhibited” value in experiment [5] is 24 µg/mL. Also, the “concentration reached before growth is affected” value in experiment [6] (Class D enteric bacteria unaffected until this concentration) came to 192 µg/mL. In experiment [6] (bacteria expressing Class D, read-out: TEM concentration at which bacteria are sensitive (elevated MIC)), the MIC was at least 128 µg/mL.

The record behind these values is patent US12234499B2, “Compositions, methods, systems and/or kits for detecting antimicrobial resistance in bacteria” (priority 2016, dated 2025).
